Results published in patent publication US8835377B2, “Oral delivery of peptide pharmaceutical compositions” (UGP Therapeutics, Inc., priority 2004, dated 2014).

Test: Pharmacokinetics after oral capsules (sCT plus Dmt-DALDA with citric acid and lauroyl carnitine), non-enteric coated or enteric coated, in fasted beagle dogs (plasma; ELISA for sCT, HPLC-MS for Dmt-DALDA)
Format: in vivo
Conditions: for AUC / Cmax: normalized to a 1 mg dose; for Tmax / Cmax: beagle, dog, plasma, oral; for plasma peptide concentration normalized to a 1 mg dose: enteric coated capsule
Method: A second series of tests was carried out, as noted above, using beagle dogs. […] In the experiments represented in FIGS. 2A and 2B, size 00 […] capsules were each filled with 758 mg of a powdered blend consisting of citric acid (643 mg), lauroyl carnitine (66 mg), talc (33 mg), salmon calcitonin (sCT) (13 mg) and Dmt-DALDA (2.4 mg). Half of the capsules were coated with an enteric coating solution of L30D-55, while the remaining 50% of the capsules were not coated. Four fasted dogs were each given 1 uncoated capsule, and 2 weeks later they were each given an enteric coated capsule. After administration of each capsule, samples of blood were taken at 15 minute intervals from an indwelling catheter for up to 4 hours. The blood samples were centrifuged and the resulting plasma supernatants were stored frozen at −20° C. The plasma samples were subsequently analyzed for sCT by a direct ELISA, and for Dmt-DALDA by HPLC-mass spectrometry performed as set forth in Wan, H. and Desiderio, D., Quantitation of [DMT^1] DALDA in ovine plasma by on-line liquid chromatography/quadrapole time-of-flight mass spectrometry, Rapid Communications in Mass Spectrometry, 2003; 17, 538-546, the contents of which are incorporated herein by reference.
The results summarized in FIGS. 2A and 2B as plasma peptide concentration normalized to a 1 mg dose as a function of time relative to the average Tmax, (i.e., the time at which the maximum amount of peptide was detected) indicate that both peptides, i.e., sCT and Dmt-DALDA, were detected in dogs given uncoated or enteric coated capsules. […] Table DI (below) sets forth the values upon which the curves in FIGS. 2A and 2B are based. The results are summarized in the tables as plasma peptide concentration normalized to a 1 mg dose as a function of time. Table III, moreover, provides the standard deviations for the data obtained regarding each of the test dogs, which standard deviations are also indicated in FIGS. 2A and 2B.
Table IV (below) summarizes the pharmacokinetic parameters in dogs of orally administered sCT and Dmt-DALDA when administered in non-enteric coated versus enteric coated capsules. Peptide was not detected from 1 dog in each group due to (a) Dog 3 vomiting the uncoated capsule and (b) delayed gastric emptying in Dog 2 provided with an enteric coated capsule. Cmax and AUC are as defined with regard to Table H above.

[1] = Non-Enteric Capsule, Avg (n = 3)

Cc1cc(O)cc(C)c1C[C@H](N)C(=O)N[C@H](CCCNC(=N)N)C(=O)N[C@@H](Cc1ccccc1)C(=O)N[C@@H](CCCCN)C(N)=O [Dmt-DALDA, H-2,6-dimethyltyrosine-D-Arginine-Phenylalanine-Lysine-NH2]
AUC (Enteric Capsule, Avg (n = 3)): 1443143 pg/mL-min
AUC (Enteric Capsule, Dog 1): 2375695 pg/mL-min
AUC (Enteric Capsule, Dog 2 (delayed gastric emptying)): 0 pg/mL-min
AUC (Enteric Capsule, Dog 3): 1185373 pg/mL-min
AUC (Enteric Capsule, Dog 4): 768361 pg/mL-min
AUC [1]: 542977 pg/mL-min
AUC (Non-Enteric Capsule, Dog 1): 410944 pg/mL-min
AUC (Non-Enteric Capsule, Dog 2): 707054 pg/mL-min
AUC (Non-Enteric Capsule, Dog 3 (vomited capsule)): 0 pg/mL-min
AUC (Non-Enteric Capsule, Dog 4): 510934 pg/mL-min
Tmax (Enteric Capsule, Avg (n = 3)): 100 min
Cmax (Enteric Capsule, Avg (n = 3)): 21 ng/mL
Tmax (Enteric Capsule, Dog 1): 45 min
Cmax (Enteric Capsule, Dog 1): 29.4 ng/mL
Tmax (Enteric Capsule, Dog 3): 135 min
Cmax (Enteric Capsule, Dog 3): 21.5 ng/mL
Tmax (Enteric Capsule, Dog 4): 120 min
Cmax (Enteric Capsule, Dog 4): 12.1 ng/mL
Tmax [1]: 40 min
Cmax [1]: 5.79 ng/mL
Tmax (Non-Enteric Capsule, Dog 1): 45 min
Cmax (Non-Enteric Capsule, Dog 1): 5.1 ng/mL
Tmax (Non-Enteric Capsule, Dog 2): 30 min
Cmax (Non-Enteric Capsule, Dog 2): 6.47 ng/mL
Tmax (Non-Enteric Capsule, Dog 4): 45 min
Cmax (Non-Enteric Capsule, Dog 4): 5.79 ng/mL
Cmax and AUC, enteric coated capsules versus non enteric-coated capsules (dogs): significantly enhanced
Cmax of enteric coated relative to non enteric coated (dogs): 4 fold
amount of peptide detected in plasma, enteric coated capsules vs non-coated capsules (dogs): nearly four times as much
time at which the maximum concentration was seen (dogs given coated capsules): 105 min
amount of Dmt-DALDA detected relative to sCT (dogs given enteric coated capsules): nearly equal amounts
amount of Dmt-DALDA detected relative to sCT (dogs given uncoated capsules): nearly three times as much
time at which the maximum concentration was seen (dogs given uncoated capsules): 30 min
plasma peptide concentration normalized to a 1 mg dose (Dog 1, 0 min): 0 pg/mL
plasma peptide concentration normalized to a 1 mg dose (Dog 1, 15 min): 0 pg/mL
plasma peptide concentration normalized to a 1 mg dose (Dog 1, 30 min): 0 pg/mL
plasma peptide concentration normalized to a 1 mg dose (Dog 1, 45 min): 29440 pg/mL
plasma peptide concentration normalized to a 1 mg dose (Dog 1, 60 min): 25224 pg/mL
plasma peptide concentration normalized to a 1 mg dose (Dog 1, 75 min): 19768 pg/mL
plasma peptide concentration normalized to a 1 mg dose (Dog 1, 90 min): 19021 pg/mL
plasma peptide concentration normalized to a 1 mg dose (Dog 1, 105 min): 12324 pg/mL
plasma peptide concentration normalized to a 1 mg dose (Dog 1, 120 min): 8108 pg/mL
plasma peptide concentration normalized to a 1 mg dose (Dog 1, 135 min): 10714 pg/mL
plasma peptide concentration normalized to a 1 mg dose (Dog 1, 150 min): 9349 pg/mL
plasma peptide concentration normalized to a 1 mg dose (Dog 1, 165 min): 6743 pg/mL
plasma peptide concentration normalized to a 1 mg dose (Dog 1, 180 min): 5502 pg/mL
plasma peptide concentration normalized to a 1 mg dose (Dog 1, 195 min): 5008 pg/mL
plasma peptide concentration normalized to a 1 mg dose (Dog 1, 210 min): 3021 pg/mL
plasma peptide concentration normalized to a 1 mg dose (Dog 2 (delayed gastric emptying), 0 min): 0 pg/mL
plasma peptide concentration normalized to a 1 mg dose (Dog 2 (delayed gastric emptying), 15 min): 0 pg/mL
plasma peptide concentration normalized to a 1 mg dose (Dog 2 (delayed gastric emptying), 30 min): 0 pg/mL
plasma peptide concentration normalized to a 1 mg dose (Dog 2 (delayed gastric emptying), 45 min): 0 pg/mL
plasma peptide concentration normalized to a 1 mg dose (Dog 2 (delayed gastric emptying), 60 min): 0 pg/mL
plasma peptide concentration normalized to a 1 mg dose (Dog 2 (delayed gastric emptying), 75 min): 0 pg/mL
plasma peptide concentration normalized to a 1 mg dose (Dog 2 (delayed gastric emptying), 90 min): 0 pg/mL
plasma peptide concentration normalized to a 1 mg dose (Dog 2 (delayed gastric emptying), 105 min): 0 pg/mL
plasma peptide concentration normalized to a 1 mg dose (Dog 2 (delayed gastric emptying), 120 min): 0 pg/mL
plasma peptide concentration normalized to a 1 mg dose (Dog 2 (delayed gastric emptying), 135 min): 0 pg/mL
plasma peptide concentration normalized to a 1 mg dose (Dog 2 (delayed gastric emptying), 150 min): 0 pg/mL
plasma peptide concentration normalized to a 1 mg dose (Dog 2 (delayed gastric emptying), 165 min): 0 pg/mL
plasma peptide concentration normalized to a 1 mg dose (Dog 2 (delayed gastric emptying), 180 min): 0 pg/mL
plasma peptide concentration normalized to a 1 mg dose (Dog 2 (delayed gastric emptying), 195 min): 0 pg/mL
plasma peptide concentration normalized to a 1 mg dose (Dog 2 (delayed gastric emptying), 210 min): 0 pg/mL
plasma peptide concentration normalized to a 1 mg dose (Dog 3, 0 min): 0 pg/mL
plasma peptide concentration normalized to a 1 mg dose (Dog 3, 15 min): 0 pg/mL
plasma peptide concentration normalized to a 1 mg dose (Dog 3, 30 min): 0 pg/mL
